The assay has as its target T1, human GPBAR1 receptor (Homo sapiens, UniProt Q8TDU6).
T1 construct: expressed in transfected cells
T1 sequence (Q8TDU6 1-330): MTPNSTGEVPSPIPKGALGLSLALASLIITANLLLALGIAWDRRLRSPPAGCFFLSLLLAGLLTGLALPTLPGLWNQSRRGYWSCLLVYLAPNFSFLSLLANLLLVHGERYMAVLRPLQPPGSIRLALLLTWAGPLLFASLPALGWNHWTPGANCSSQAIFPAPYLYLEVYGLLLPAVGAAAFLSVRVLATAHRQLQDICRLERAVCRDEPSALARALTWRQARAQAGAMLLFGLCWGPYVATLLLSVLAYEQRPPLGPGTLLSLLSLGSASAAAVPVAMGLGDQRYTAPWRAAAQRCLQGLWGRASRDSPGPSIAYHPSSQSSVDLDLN
Put plainly: functional cAMP assay in CHO-dhfr(minus) cells expressing human GPBAR1 receptors. Type of assay: cell-based. Particulars: human EC50, functional cAMP assay, 30 min at 30° C. The procedure, abridged: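 Agonist cAMP read-out: stable GPBAR1 CHO-dhfr− clone, 30 min compound exposure at 30° C following 30 min IBMX (1 mM) preincubation in Krebs Ringer bicarbonate. Time-resolved energy-transfer detection gives EC50; parental CHO cells serve as counter-screen.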
Background: Cyclic AMP is a second messenger, typically raised through Gs and lowered through Gi signalling.
Broadly, the EC50 is the concentration that produces a half-maximal response. For `Cc1cc(Cl)ccc1C(C/C(=N\O)c1ccc(=O)n(C)c1)c1ccc(OCCO)c(F)c1` (stereo not shown) [Example 328, 5-{3-(4-Chloro-2-methyl-phenyl)-3-[3-fluoro-4-(2-hydroxy-ethoxy)-phenyl]-1-[(E)-hydroxyimino]-propyl}-1-methyl-1H-pyridin-2-one], the midpoint of the response, the EC50, lay at 11 nM.

The molecule `Cc1ccccc1C(C/C(=N\O)c1ccc(=O)n(C)c1)c1ccc(C(=O)NCCCC(=O)O)cc1` (stereo not shown) [Example 213, 4-{4-[3-[(E)-Hydroxyimino]-3-(1-methyl-6-oxo-1,6-dihydro-pyridin-3-yl)-1-o-tolyl-propyl]-benzoylamino}-butyric acid] yielded an EC50 of 1310 nM.

As to `Cc1cc(/C(CC(c2cccc(-c3cccc(C(=O)NCC(=O)O)c3)c2)c2ccccc2C)=N/O)ccn1` (stereo not shown) [Example 108, ({3′-[3-[(E)-Hydroxyimino]-3-(2-methyl-pyridin-4-yl)-1-o-tolyl-propyl]-biphenyl-3-carbonyl}-amino)-acetic acid], the midpoint of the response, the EC50, lay at 76 nM.

In turn, `Cc1cc(/C(C[C@H](c2ccc(CC(=O)O)cc2)c2ccc(Cl)cc2C)=N/O)ccn1` [Example 382, {4-[(R)-1-(4-Chloro-2-methyl-phenyl)-3-[(E)-hydroxyimino]-3-(2-methyl-pyridin-4-yl)-propyl]-phenyl}-acetic acid] came in with a 50% effective concentration (EC50) of 41 nM.

Regarding `Cc1ccccc1C(CC(=NO)c1ccncc1)c1ccc(-c2cncnc2)cc1` (racemic) [Example 34, 1-Pyridin-4-yl-3-(4-pyrimidin-5-yl-phenyl)-3-o-tolyl-propan-1-one oxime], the midpoint of the response, the EC50, lay at 14 nM.

`Cc1cc(/C(C[C@H](c2ccc(C(=O)N(C)C)cc2)c2ccccc2C)=N/O)ccn1` [Example 277, 4-[(R)-3-[(E)-Hydroxyimino]-3-(2-methyl-pyridin-4-yl)-1-o-tolyl-propyl]-N,N-dimethyl-benzamide] gave an EC50 of 21 nM.

As for `Cc1cc(/C(CC(c2ccc(C(=O)O)cc2)c2ccc(F)cc2F)=N/O)ccn1` (stereo not shown) [Example 431, 4-[1-(2,4-Difluoro-phenyl)-3-[(E)-hydroxyimino]-3-(2-methyl-pyridin-4-yl)-propyl]-benzoic acid], the midpoint of the response, the EC50, lay at 465 nM.

In turn, `Cn1cc(/C(CC(c2ccc(-c3ccc(C(=O)O)c(F)c3)cc2)c2ccc(Cl)cc2Cl)=N/O)ccc1=O` (single isomer, unassigned) [Example 474, 4′-[(−)-1-(2,4-Dichloro-phenyl)-3-[(E)-hydroxyimino]-3-(1-methyl-6-oxo-1,6-dihydro-pyridin-3-yl)-propyl]-3-fluoro-biphenyl-4-carboxylic acid] yielded an EC50 of 43 nM.

In turn, `Cc1cc(/C(C[C@H](c2ccc(C3=CCN(S(C)(=O)=O)CC3)cc2)c2ccccc2C)=N/O)ccn1` [Example 376, (R,E)-1-(2-Methylpyridin-4-yl)-3-(4-(1-(methylsulfonyl)-1,2,3,6-tetrahydropyridin-4-yl)phenyl)-3-o-tolylpropan-1-one oxime] registered a concentration giving a half-maximal response (EC50) of 14 nM.

The molecule `COC(=O)CNC(=O)c1ccc(-c2ccc(C(C/C(=N\O)c3ccc(=O)n(C)c3)c3ccc(F)cc3C)cc2)cc1` (stereo not shown) [Example 257, ({4′-[1-(4-Fluoro-2-methyl-phenyl)-3-[(E)-hydroxyimino]-3-(1-methyl-6-oxo-1,6-dihydro-pyridin-3-yl)-propyl]-biphenyl-4-carbonyl}-amino)-acetic acid methyl ester] registered an EC50 of 20 nM.

`Cc1cc(F)ccc1C(C/C(=N\O)c1ccc(=O)n(C)c1)c1ccc(-c2ccc(NC(=O)CC(=O)O)cc2)cc1` (stereo not shown) [Example 400, N-{4′-[1-(4-Fluoro-2-methyl-phenyl)-3-[(E)-hydroxyimino]-3-(1-methyl-6-oxo-1,6-dihydro-pyridin-3-yl)-propyl]-biphenyl-4-yl}-malonamic acid] came in with an EC50 of 49 nM.

Turning to `Cc1cc(F)ccc1C(C/C(=N\O)c1ccc(=O)n(C)c1)c1ccc(-c2ccc(C(=O)O)cc2)cc1` (stereo not shown) [Example 225, (E)-4′-(1-(4-Fluoro-2-methylphenyl)-3-(hydroxyimino)-3-(1-methyl-6-oxo-1,6-dihydropyridin-3-yl)propyl)biphenyl-4-carboxylic acid], the midpoint of the response, the EC50, lay at 49 nM.

`Cc1cc(Cl)ccc1C(C/C(=N\O)c1ccc(=O)n(C)c1)c1ccc(-c2ccc(C(=O)NCC(=O)O)cc2)cc1` (single isomer, unassigned; (+)) [Example 256, (+)-({4′-[1-(4-Chloro-2-methyl-phenyl)-3-[(E)-hydroxyimino]-3-(1-methyl-6-oxo-1,6-dihydro-pyridin-3-yl)-propyl]-biphenyl-4-carbonyl}-amino)-acetic acid]: the response was half-maximal at 10 nM (EC50).

Turning to `Cn1cc(/C(CC(c2ccc(-c3ccc(C(=O)O)c(F)c3)cc2)c2ccc(Cl)cc2Cl)=N/O)ccc1=O` (stereo not shown) [Example 473, 4′-[1-(2,4-Dichloro-phenyl)-3-[(E)-hydroxyimino]-3-(1-methyl-6-oxo-1,6-dihydro-pyridin-3-yl)-propyl]-3-fluoro-biphenyl-4-carboxylic acid], it took 29 nM to reach a half-maximal effect (EC50).

As to `Cc1cc(Cl)ccc1C(C/C(=N\O)c1ccc(=O)n(C)c1)c1ccc(C(=O)NCCS(C)(=O)=O)cc1` (stereo not shown) [Example 336, (E)-4-(1-(4-Chloro-2-methylphenyl)-3-(hydroxyimino)-3-(1-methyl-6-oxo-1,6-dihydropyridin-3-yl)propyl)-N-(2-(methylsulfonyl)ethyl)benzamide], the half-maximal effective concentration (EC50) stood at 330 nM.

As to `Cc1ccccc1[C@H](C/C(Cc1ccncc1)=N\O)c1ccc(Br)cc1` [Example 261, (E,R)-4-(4-bromophenyl)-1-(pyridin-4-yl)-4-o-tolylbutan-2-one oxime], the EC50 is 28 nM.

`Cc1[nH]c2ccccc2c1C(CC(=NO)c1ccncc1)c1ccc(N(C)C)cc1` (racemic) [Example 63, 3-(4-Dimethylamino-phenyl)-3-(2-methyl-1H-indol-3-yl)-1-pyridin-4-yl-propan-1-one oxime] came in with an EC50 of 2730 nM.

`Cn1cc(/C(CC(c2ccc(C(=O)NCC(F)(F)F)c(F)c2)c2ccccc2Cl)=N/O)ccc1=O` (stereo not shown) [Example 234, (E)-4-(1-(2-Chlorophenyl)-3-(hydroxyimino)-3-(1-methyl-6-oxo-1,6-dihydropyridin-3-yl)propyl)-2-fluoro-N-(2,2,2-trifluoroethyl)benzamide] gave a half-maximal effective concentration (EC50) of 380 nM.

On to `Cc1cnc(F)cc1C(CC(c1ccc(Br)cc1)c1ccccc1C)=NO` (racemic) [Example 124, 3-(4-Bromo-phenyl)-1-(2-fluoro-5-methyl-pyridin-4-yl)-3-o-tolyl-propan-1-one oxime], for which a half-maximal response (EC50) required 17 nM.

`Cc1cc(/C(CC(c2ccc(C(=O)N3CCN(S(C)(=O)=O)CC3)cc2)c2ccc(F)cc2F)=N/O)ccn1` (stereo not shown) [Example 439, 3-(2,4-Difluoro-phenyl)-3-[4-(4-methanesulfonyl-piperazine-1-carbonyl)-phenyl]-1-(2-methyl-pyridin-4-yl)-propan-1-one oxime] gave a 50% effective concentration (EC50) of 81 nM.

As to `Cc1cc(/C(C[C@H](c2ccccc2)c2ccccc2C)=N/O)ccn1` [Example 368, (R,E)-1-(2-Methylpyridin-4-yl)-3-phenyl-3-o-tolylpropan-1-one oxime], the midpoint of the response, the EC50, lay at 18 nM.

For `Cc1cc(C(C[C@@H](c2ccc(-c3ccc(C(=O)N[C@@H](C)C(=O)O)cc3)cc2)c2ccccc2C)=NO)ccn1` (racemic) [Example 95, (S)-2-({4′-[(S)-3-[Hydroxyimino]-3-(2-methyl-pyridin-4-yl)-1-o-tolyl-propyl]-biphenyl-4-carbonyl}-amino)-propionic acid], it took 39 nM to reach a half-maximal effect (EC50).

The values are drawn from US8765730B2 (Hoffmann-La Roche Inc, priority 2010, dated 2014).
